Target: T1, Squalene synthase (Rattus norvegicus, UniProt Q02769)
T1 sequence (Q02769 whole entry): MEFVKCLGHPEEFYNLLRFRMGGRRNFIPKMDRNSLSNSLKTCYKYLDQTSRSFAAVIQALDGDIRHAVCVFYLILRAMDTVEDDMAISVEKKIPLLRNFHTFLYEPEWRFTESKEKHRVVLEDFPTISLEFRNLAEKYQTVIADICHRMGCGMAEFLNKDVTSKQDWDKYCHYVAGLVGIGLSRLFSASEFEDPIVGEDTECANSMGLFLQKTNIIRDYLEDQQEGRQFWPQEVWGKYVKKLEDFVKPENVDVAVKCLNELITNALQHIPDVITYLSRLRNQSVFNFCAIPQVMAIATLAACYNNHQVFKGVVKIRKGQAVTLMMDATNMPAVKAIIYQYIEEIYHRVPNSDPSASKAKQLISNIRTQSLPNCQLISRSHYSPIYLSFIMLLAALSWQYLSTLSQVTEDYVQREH
Experiment: In vitro inhibition of rat squalene synthase

Q: For C=C(CC[C@]12O[C@H](CO)[C@@](O)(C(=O)O)[C@](C(=O)O)(O1)[C@H](OC(=O)CCC)[C@H]2O)[C@@H](OC(C)=O)[C@H](C)Cc1ccccc1, which IC50 is on record?
A: 800 nM

Q: C=C(CC[C@]12O[C@H](CO)[C@@](O)(C(=O)O)[C@](C(=O)O)(O1)[C@H](OC(=O)CC[C@@H](C)C[C@@H](C)CC)[C@H]2O)[C@@H](OC(C)=O)[C@H](C)Cc1ccccc1 was tested. Which IC50 did it give?
A: 44 nM

Q: For C=C(CC[C@]12O[C@H](CO)[C@@](O)(C(=O)O)[C@](C(=O)O)(O1)[C@H](OC(=O)CCCCCCCC)[C@H]2O)[C@@H](OC(C)=O)[C@H](C)Cc1ccccc1, which IC50 is on record?
A: 140 nM

Q: Which IC50 does the source give for C=C(CC[C@]12O[C@H](CO)[C@@](O)(C(=O)O)[C@](C(=O)O)(O1)[C@H](O)[C@H]2O)[C@@H](OC(C)=O)[C@H](C)Cc1ccccc1 here?
A: 395 nM

Q: How did the IC50 turn out when C=C(CC[C@]12O[C@H](CO)[C@@](O)(C(=O)O)[C@](C(=O)O)(O1)[C@H](OC(=O)CCC(C)C)[C@H]2O)[C@@H](OC(C)=O)[C@H](C)Cc1ccccc1 was run?
A: 119 nM

Q: For C=C(CC[C@]12OC[C@@](O)(C(=O)O)[C@](C(=O)O)(O1)[C@H](O)[C@H]2O)[C@@H](OC(C)=O)[C@H](C)Cc1ccccc1, which IC50 is on record?
A: 25000 nM

Q: With CC[C@H](C)C[C@H](C)CCC(=O)O[C@@H]1[C@@H](O)[C@@]2(CCC(=O)[C@@H](O)[C@H](C)Cc3ccccc3)O[C@H](CO)[C@@](O)(C(=O)O)[C@]1(C(=O)O)O2 as the compound, how does the IC50 read?
A: 740 nM

Q: Which IC50 does the source give for C=C(CC[C@]12O[C@H](CO)[C@@](O)(C(=O)O)[C@](C(=O)O)(O1)[C@H](OC(=O)/C=C/[C@@H](C)C[C@@H](C)CC)[C@H]2O)[C@@H](OC(C)=O)[C@H](C)Cc1ccccc1 here?
A: 15 nM

Q: Which IC50 does the source give for C=C(CC[C@]12OC[C@@](O)(C(=O)O)[C@](C(=O)O)(O1)[C@H](OC(=O)/C=C/[C@@H](C)C[C@@H](C)CC)[C@H]2O)[C@@H](OC(C)=O)[C@H](C)Cc1ccccc1 here?
A: 23 nM

Q: For C=C(CC[C@]12O[C@H](CO)[C@@](O)(C(=O)O)[C@](C(=O)O)(O1)[C@H](OC(=O)/C=C/[C@@H](C)C[C@@H](C)CC)[C@H]2O)[C@@H](O)[C@H](C)Cc1ccccc1, which IC50 is on record?
A: 21 nM

Q: For C=C(CC[C@]12O[C@H](CO)[C@@](O)(C(=O)OC)[C@](C(=O)O)(O1)[C@H](OC(=O)/C=C/[C@@H](C)C[C@@H](C)CC)[C@H]2O)[C@@H](OC(C)=O)[C@H](C)Cc1ccccc1, which IC50 is on record?
A: 79 nM

Q: With C=C(CC[C@]12O[C@H](CO)[C@@](O)(C(=O)O)[C@](C(=O)O)(O1)[C@H](OC(=O)CC[C@@H](C)C[C@@H](C)CC)[C@H]2O)[C@@H](O)[C@H](C)Cc1ccccc1 as the compound, how does the IC50 read?
A: 22 nM

Q: How did the IC50 turn out when C=C(CC[C@]12O[C@H](CO)[C@@](O)(C(=O)O)[C@](C(=O)O)(O1)[C@H](OC(=O)CCCCCC)[C@H]2O)[C@@H](OC(C)=O)[C@H](C)Cc1ccccc1 was run?
A: 245 nM
